Experimental data as given in the supplement of paper PMC11061612.

Experiments:
Experiment in all cases: combination Emax (second highest fraction inhibited in the dose matrix, 72 h); higher = more inhibition; extreme values may be limits of the assay
[1] = tested on: HLE (Hepatocellular Carcinoma)
Outline: (§1)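 After 24 hours at 37°C and 5% CO2 in 1536-well plates, cells in DMEM/F12 or RPMI plus 10% FBS received two-drug dose matrices for 72 hours. Viability came from CellTiter-Glo 2.0 luminescence and was scaled as inhibition, anchored at 0 by vehicle wells and at 1 by blank wells. Combination Emax is taken as the second-highest inhibition in the matrix, and Bliss excess as the observed combination effect less EA + EB − EA·EB, with EA and EB the single-agent effects.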

[2] = tested on: YT (Other Blood Carcinomas)
Outline: as §1

HuO9 (Osteosarcoma) = tested on: HuO9 (Osteosarcoma)
Outline: as §1

MSTO-211H (Mesothelioma) = tested on: MSTO-211H (Mesothelioma)
Outline: as §1

[3] = tested on: SW948 (Colorectal Carcinoma)
Outline: as §1

[4] = tested on: CAL-39 (Other Solid Carcinomas)
Outline: as §1

[5] = tested on: HCC1143 (Breast Carcinoma)
Outline: as §1

D-392MG (Glioblastoma) = tested on: D-392MG (Glioblastoma)
Outline: as §1

CS1 (Chondrosarcoma) = tested on: CS1 (Chondrosarcoma)
Outline: as §1

SK-MEL-1 (Melanoma) = tested on: SK-MEL-1 (Melanoma)
Outline: as §1

[6] = tested on: PA-TU-8902 (Pancreatic Carcinoma)
Outline: as §1

[7] = tested on: SNG-M (Endometrial Carcinoma)
Outline: as §1

EW-22 (Ewing's Sarcoma) = tested on: EW-22 (Ewing's Sarcoma)
Outline: as §1

[8] = tested on: NCI-H1688 (Small Cell Lung Carcinoma)
Outline: as §1

[9] = tested on: EFM-192A (Breast Carcinoma)
Outline: as §1

[10] = tested on: HCC-827 (Lung Adenocarcinoma)
Outline: as §1

[11] = tested on: DOK (Oral Cavity Carcinoma)
Outline: as §1

[12] = tested on: JHH-6 (Hepatocellular Carcinoma)
Outline: as §1

[13] = tested on: D-283MED (Other Solid Carcinomas)
Outline: as §1

[14] = tested on: GDM-1 (Acute Myeloid Leukemia)
Outline: as §1

| Structure (SMILES) | combination Emax [1] | combination Emax [2] | combination Emax (HuO9 (Osteosarcoma)) | combination Emax (MSTO-211H (Mesothelioma)) | combination Emax [3] | combination Emax [4] | combination Emax [5] | combination Emax (D-392MG (Glioblastoma)) | combination Emax (CS1 (Chondrosarcoma)) | combination Emax (SK-MEL-1 (Melanoma)) | combination Emax [6] | combination Emax [7] | combination Emax (EW-22 (Ewing's Sarcoma)) | combination Emax [8] | combination Emax [9] | combination Emax [10] | combination Emax [11] | combination Emax [12] | combination Emax [13] | combination Emax [14] |
| --- | --- | --- | --- | --- | --- | --- | --- | --- | --- | --- | --- | --- | --- | --- | --- | --- | --- | --- | --- | --- |
| C[C@@H](c1ccc2nccn2c1)n1nnc2ncc(-c3cnn(C)c3)nc21 [Savolitinib] + CC1(C)CCC(CN2CCN(c3ccc(C(=O)NS(=O)(=O)c4ccc(NCC5CCOCC5)c([N+](=O)[O-])c4)c(Oc4cnc5[nH]ccc5c4)c3)CC2)=C(c2ccc(Cl)cc2)C1 [Venetoclax] (first compound max 1 µM, 7x7, partner max 1 µM) | 0.155 | 0.336 | 0.197 | 0.114 | 0.166 | 0.157 | 0.29 | 0.266 | 0.343 | 0.158 | 0.168 | 0.246 | 0.173 | 0.239 | 0.174 | 0.266 | 0.116 | 0.0411 | 0.126 | 0.515 |
| C[C@@H](c1ccc2nccn2c1)n1nnc2ncc(-c3cnn(C)c3)nc21 [Savolitinib] + Cc1c2c(nn1C)CSCc1cc(n(C)n1)CSc1cc(c3ccccc3c1)OCCCc1c(C(=O)O)n(C)c3c-2c(Cl)ccc13 [AZD5991] (first compound max 1 µM, 7x7, partner max 1 µM) | 0.164 | 1 | 0.739 | 0.123 | 0.215 | 0.264 | 0.402 | 0.31 | 0.266 | 0.0746 | 0.184 | 0.32 | 0.271 | 0.314 | 0.587 | 0.283 | 0.372 | 0.103 | 0.725 | 0.208 |
| Cn1cnc2c(F)c(Nc3ccc(Br)cc3Cl)c(C(=O)NOCCO)cc21 [Selumetinib] + C=CCn1c(=O)c2cnc(Nc3ccc(N4CCN(C)CC4)cc3)nc2n1-c1cccc(C(C)(C)O)n1 [AZD1775] (first compound max 10 µM, partner max 1 µM) | 0.345 | 0.945 | 0.747 | 0.442 | 0.79 | 0.726 | 0.528 | 0.263 | 0.386 | 0.896 | 0.571 | 0.555 | 0.573 | 0.525 | 0.248 | 0.377 | 0.618 | 0.297 | 0.956 | 0.898 |
| Cn1cnc2c(F)c(Nc3ccc(Br)cc3Cl)c(C(=O)NOCCO)cc21 [Selumetinib] + CC(C)n1c(=O)n(C)c2cnc3cc(F)c(-c4ccc(OCCCN5CCCCC5)nc4)cc3c21 [AZD1390] (first compound max 10 µM, 7x7, partner max 0.3 µM) | 0.122 | 0.16 | 0.626 | 0.162 | 0.698 | 0.643 | 0.297 | 0.145 | 0.256 | 0.838 | 0.307 | 0.187 | 0.128 | 0.223 | 0.103 | 0.195 | 0.416 | 0.168 | 0.148 | 0.165 |
| Cn1cnc2c(F)c(Nc3ccc(Br)cc3Cl)c(C(=O)NOCCO)cc21 [Selumetinib] + CCN(CCO)CCCOc1ccc2c(Nc3cc(CC(=O)Nc4cccc(F)c4)[nH]n3)ncnc2c1 [AZD2811] (first compound max 10 µM, 7x7, partner max 1 µM) | 0.235 | 0.229 | 0.242 | 0.318 | 0.785 | 0.72 | 0.409 | 0.197 | 0.266 | 0.863 | 0.445 | 0.261 | 0.695 | 0.169 | 0.167 | 0.277 | 0.633 | 0.318 | 0.476 | 0.861 |
| Cn1cnc2c(F)c(Nc3ccc(Br)cc3Cl)c(C(=O)NOCCO)cc21 [Selumetinib] + C[C@@H]1COCCN1C2=NC(=NC(=C2)C3(CC3)[S@](=N)(=O)C)C4=C5C=CNC5=NC=C4 [AZD6738] (first compound max 10 µM, 7x7, partner max 10 µM) | 0.404 | 0.801 | 0.726 | 0.396 | 0.732 | 0.697 | 0.766 | 0.302 | 0.472 | 0.922 | 0.357 | 0.866 | 0.855 | 0.165 | 0.135 | 0.413 | 0.51 | 0.445 | 0.988 | 0.755 |
| CC(=O)Nc1cccc(-n2c(=O)n(C3CC3)c(=O)c3c(Nc4ccc(I)cc4F)n(C)c(=O)c(C)c32)c1 [Trametinib] + Cc1nc(-c2cn3c(n2)-c2ccc(-c4cnn(C(C)(C)C(N)=O)c4)cc2OCC3)n(C(C)C)n1 [Taselisib] (first compound max 1 µM, 7x7, partner max 10 µM) | 0.401 | 0.711 | 0.8 | 0.854 | 0.994 | 1 | 0.763 | 0.709 | 0.878 | 0.942 | 0.724 | 0.871 | 0.722 | 0.628 | 0.72 | 0.762 | 0.998 | 0.636 | 0.576 | 0.88 |
| CC1(C)CCC(CN2CCN(c3ccc(C(=O)NS(=O)(=O)c4ccc(NCC5CCOCC5)c([N+](=O)[O-])c4)c(Oc4cnc5[nH]ccc5c4)c3)CC2)=C(c2ccc(Cl)cc2)C1 [Venetoclax] + C1CN(CCC1(C(=O)N[C@@H](CCO)C2=CC=C(C=C2)Cl)N)C3=NC=NC4=C3C=CN4 [Capivasertib] (first compound max 1 µM, 7x7, partner max 3 µM) | 0.181 | 0.47 | 0.488 | 0.251 | 0.646 | 0.279 | 0.239 | 0.239 | 0.324 | 0.208 | 0.162 | 0.416 | 0.905 | 0.294 | 0.379 | 0.273 | 0.331 | 0.232 | 0.582 | 0.866 |
| CC1(C)CCC(CN2CCN(c3ccc(C(=O)NS(=O)(=O)c4ccc(NCC5CCOCC5)c([N+](=O)[O-])c4)c(Oc4cnc5[nH]ccc5c4)c3)CC2)=C(c2ccc(Cl)cc2)C1 [Venetoclax] + C=CCn1c(=O)c2cnc(Nc3ccc(N4CCN(C)CC4)cc3)nc2n1-c1cccc(C(C)(C)O)n1 [AZD1775] (first compound max 1 µM, partner max 1 µM) | 0.749 | 0.928 | 0.759 | 0.592 | 0.773 | 0.36 | 0.548 | 0.5 | 0.682 | 0.411 | 0.286 | 0.729 | 0.924 | 0.666 | 0.327 | 0.413 | 0.333 | 0.296 | 0.979 | 1 |
| CC1(C)CCC(CN2CCN(c3ccc(C(=O)NS(=O)(=O)c4ccc(NCC5CCOCC5)c([N+](=O)[O-])c4)c(Oc4cnc5[nH]ccc5c4)c3)CC2)=C(c2ccc(Cl)cc2)C1 [Venetoclax] + CCN(CCO)CCCOc1ccc2c(Nc3cc(CC(=O)Nc4cccc(F)c4)[nH]n3)ncnc2c1 [AZD2811] (first compound max 1 µM, 7x7, partner max 1 µM) | 0.416 | 0.344 | 0.336 | 0.394 | 0.799 | 0.285 | 0.318 | 0.217 | 0.434 | 0.292 | 0.192 | 0.278 | 0.924 | 0.242 | 0.212 | 0.254 | 0.313 | 0.193 | 0.778 | 0.996 |
| CC1(C)CCC(CN2CCN(c3ccc(C(=O)NS(=O)(=O)c4ccc(NCC5CCOCC5)c([N+](=O)[O-])c4)c(Oc4cnc5[nH]ccc5c4)c3)CC2)=C(c2ccc(Cl)cc2)C1 [Venetoclax] + CN(C)CCCOc1ccc(-c2ccc3ncc4c(c3c2)n(C2CCOCC2)c(=O)n4C)cn1 [AZD0156] (first compound max 1 µM, 7x7, partner max 1 µM) | 0.171 | 0.475 | 0.343 | 0.123 | 0.409 | 0.21 | 0.232 | 0.205 | 0.56 | 0.231 | 0.209 | 0.127 | 0.866 | 0.195 | 0.25 | 0.26 | 0.2 | 0.212 | 0.706 | 0.679 |
| CC1(C)CCC(CN2CCN(c3ccc(C(=O)NS(=O)(=O)c4ccc(NCC5CCOCC5)c([N+](=O)[O-])c4)c(Oc4cnc5[nH]ccc5c4)c3)CC2)=C(c2ccc(Cl)cc2)C1 [Venetoclax] + COc1cc(Nc2ncc3c(n2)-c2ccc(Cl)cc2C(c2c(F)cccc2OC)=NC3)ccc1C(=O)O [Alisertib] (first compound max 1 µM, 7x7, partner max 10 µM) | 0.598 | 0.555 | 0.682 | 0.734 | 0.926 | 0.704 | 0.469 | 0.416 | 0.598 | 0.351 | 0.394 | 0.752 | 0.919 | 0.398 | 0.167 | 0.457 | 0.646 | 0.301 | 0.85 | 0.98 |
